Source: patent US20190321334A1, “COMPOSITIONS AND METHODS FOR THE TREATMENT OF PRESBYOPIA” (priority 2018, published 2019)

Experiments:
presbyopic subjects [1] = experiment: Near vision acuity after topical instillation (near test card at 16 inches; Reading vs. Baseline at 40 cm; onset, duration, Efficacy Index); assay type: in vivo, human
Source text: (§1) Subject is an emmetrope over the age of 45 with a baseline near vision of 20.100 and baseline distance vision of 20.20. Topical administration to the eye of 1% w/v pilocarpine in saline solution results in an improvement of near vision to 20.40 (8a), however this improvement comes at the expense of a reduction in distance vision to 20.100 (8b). […] A proper drug carrier can also have a beneficial effect.
(§2) 1.75% w/v aceclidine was formulated in 0.9% w/v saline with 0.02% w/v BAK. Drops were instilled binocularly into a subject. Near vision testing was performed at 16 inches on a Precision Vision 16″ near test card. All near vision testing was binocular.
(§3) As aceclidine is an […], the clinical effectiveness may vary with different ratios. For the present studies a nearly exact 50:50 ratio of stereoisomers was measured as best determined by polarimetry.
In brief, the score is calculated by multiplying the lines of improvement in near visual acuity by the number of hours the improvement lasts. For example a score of: 5 is equal to +1 lines of improvement in near visual acuity for 5 hours; 10 is equal to +1.5 lines of improvement for 6.7 hours; 15 is equal to 2 lines of improvement for 7.5 hours; 20 is equal to 2.5 lines of improvement for 8 hours; 25 is equal to 3+ lines of improvement for 8.3 hours and 35 is equal to 3.75+ lines of improvement for 9 hours.
2 subjects instilled 2 drops each of the above formulation in each eye about 5 minutes apart.

presbyopic subjects [2] = experiment: Distance vision acuity after topical instillation; assay type: in vivo, human; conditions: baseline distance 20.20
Source text: as §1, §2, §3

[3] = 1% w/v pilocarpine or 1.55% w/v aceclidine in saline solution, emmetrope over 45, baseline near 20.100
[4] = 1% w/v pilocarpine or 1.55% w/v aceclidine in saline solution

Structure (SMILES) | near vision (FIG. 1) (presbyopic subjects [1]; [3]) | near vision (FIG. 1) (presbyopic subjects [1]; 1% w/v pilocarpine with addition of 0.015% w/v tropicamide, baseline near 20.100) | distance vision (FIG. 1) (presbyopic subjects [2]; [4]) | distance vision (FIG. 1) (presbyopic subjects [2]; 1% w/v pilocarpine with addition of 0.015% w/v tropicamide) | time period of near vision improvement (FIG. 1) (presbyopic subjects [1]; 1.55% w/v aceclidine in saline solution) [h] | near vision improvement (presbyopic subjects [1]; 1.75% aceclidine, 2.5% mannitol, 0.01% tropicamide, 5% polysorbate 80) | near vision (FIG. 1) (presbyopic subjects [1]; aceclidine in carrier with 0.042% w/v tropicamide) | near vision (FIG. 1) (presbyopic subjects [1]; aceclidine in carrier: 5.5% HPβCD, 0.75% CMC, 0.25% NaCl, 0.01% BAK)
CC[C@@H]1C(=O)OC[C@@H]1Cc1cncn1C [pilocarpine] | 20.40 | 20.25 | 20.100 | 20.55 | – | – | – | –
CC(=O)OC1CN2CCC1CC2 (racemic) [Aceclidine, aceclidine] | 20.40 | – | without any effect on the baseline distance vision | – | 6 | up to 3 lines of vision acuity | 20.15 | < 20.20
